Data on 11 compounds can be found in patent US20080188528A1, “Modulators of C3a receptor and methods of use thereof” (priority 2006, published 2008).

In the test the target is T1, human C3a receptor (C3aR) (Homo sapiens, UniProt Q16581).
T1 construct: expressed in transfected cells
T1 sequence (Q16581 1-482): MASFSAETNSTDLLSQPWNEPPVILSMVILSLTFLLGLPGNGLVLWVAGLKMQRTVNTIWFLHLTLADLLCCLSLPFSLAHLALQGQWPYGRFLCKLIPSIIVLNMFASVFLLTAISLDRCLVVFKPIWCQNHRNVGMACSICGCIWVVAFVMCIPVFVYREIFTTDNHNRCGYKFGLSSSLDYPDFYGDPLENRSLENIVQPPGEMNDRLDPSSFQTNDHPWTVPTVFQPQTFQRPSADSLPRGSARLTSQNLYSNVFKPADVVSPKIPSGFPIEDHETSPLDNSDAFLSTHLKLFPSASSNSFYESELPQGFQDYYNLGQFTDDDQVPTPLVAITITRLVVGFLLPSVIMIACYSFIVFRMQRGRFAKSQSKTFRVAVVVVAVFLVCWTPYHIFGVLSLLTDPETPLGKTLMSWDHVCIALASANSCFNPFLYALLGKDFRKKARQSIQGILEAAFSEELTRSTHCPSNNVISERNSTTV
The experiment in a line: Inhibition of human [125I]-C3a binding to human C3a receptor (SPA, membranes of HEK293 cells expressing recombinant C3aR). Particulars: 0.1 nM [125I]-C3a, 3 hours at room temperature; Table 4. The gist of the method: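 HEK293 C3aR membranes were pre-coupled to WGA SPA beads and incubated 3 h at room temperature with 0.1 nM [125I]-C3a in HEPES pH 7.4 buffer containing 0.25% BSA and 0.2% CHAPS, DMSO ≤1%. Nonspecific binding was defined with 1 μM unlabeled C3a. IC50 came from nonlinear least-squares fitting.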

Counter-ions that a name gives are not always drawn. A value given as a limit tells only on which side of the number the result lay.

A word on the IC50: it is the concentration that gives 50% inhibition. Regarding `N=C(NCCC[C@H](NC(=O)c1cccn(Cc2ccccc2)c1=O)C(=O)O)N[N+](=O)[O-]` [Compound 73, (2S)-2-{[(1-benzyl-2-oxo-1,2-dihydropyridin-3-yl)carbonyl]amino}-5-(nitrocarbamimidamido)pentanoic acid], the 50% inhibitory concentration (IC50) was 500 to 20000 nM.

For `N=C(NCCC[C@H](NC(=O)c1cccn(C(c2ccccc2)c2ccccc2)c1=O)C(=O)O)N[N+](=O)[O-]` [Compound 74, (2S)-2-({[1-(diphenylmethyl)-2-oxo-1,2-dihydropyridin-3-yl]carbonyl}amino)-5-(nitrocarbamimidamido)pentanoic acid], the 50% inhibitory concentration (IC50) was in the range of 50 to 500 nM.

Regarding `COC(=O)[C@H](CCCNC(=N)N[N+](=O)[O-])NC(=O)c1cccn(C(c2ccccc2)c2ccccc2)c1=O` [Compound 75, methyl (2S)-2-({[1-(diphenylmethyl)-2-oxo-1,2-dihydropyridin-3-yl]carbonyl}amino)-5-(nitrocarbamimidamido)pentanoate], the IC50 fell in the range of 500 to 20000 nM.

Consider `Cc1ccc(S(=O)(=O)NC(=N)NCCC[C@H](NC(=O)c2cccn(Cc3ccccc3)c2=O)C(=O)O)cc1` [Compound 76, (2S)-2-{[(1-benzyl-2-oxo-1,2-dihydropyridin-3-yl)carbonyl]amino}-5-{[(4-methylphenyl)sulfonyl]carbamimidamido} pentanoic acid], for which the IC50 lay within 500 to 20000 nM.

For the compound `Cc1ccc(S(=O)(=O)NC(=N)NCCC[C@H](NC(=O)c2cccn(C(c3ccccc3)c3ccccc3)c2=O)C(=O)O)cc1` [Compound 77, (2S)-2-({[1-(diphenylmethyl)-2-oxo-1,2-dihydropyridin-3-yl]carbonyl}amino)-5-{[(4-methylphenyl)sulfonyl]carbamimidamido}pentanoic acid], the IC50 fell in the range of 50 to 500 nM.

With `Cc1c(C)c(S(=O)(=O)NC(=N)Nc2cccc([C@H](NC(=O)c3cccn(Cc4ccccc4)c3=O)C(=O)O)c2)c(C)c2c1OC(C)(C)CC2` [Compound 78, (2S)-{[(1-benzyl-2-oxo-1,2-dihydropyridin-3-yl)carbonyl]amino}(3-{[(2,2,5,7,8-pentamethyl-3,4-dihydro-2H-chromen-6-yl)sulfonyl]carbamimidamido}phenyl)acetic acid], the IC50 fell in the range of 500 to 20000 nM.

For the compound `Cc1c(C)c(S(=O)(=O)NC(=N)NCCC[C@H](NC(=O)c2cccn(CC(c3ccccc3)c3ccccc3)c2=O)C(=O)O)c(C)c2c1OC(C)(C)CC2` [Compound 79, (2S)-2-({[1-(2,2-diphenylethyl)-2-oxo-1,2-dihydropyridin-3-yl]carbonyl}amino)-5-{[(2,2,5,7,8-pentamethyl-3,4-dihydro-2H-chromen-6-yl)sulfonyl]carbamimidamido}pentanoic acid•TFA], the IC50 was 50 to 500 nM.

`COC(=O)[C@H](CCCNC(=N)N)NC(=O)c1cccn(C(c2ccccc2)c2ccccc2)c1=O` [Compound 80, methyl (2S)-5-carbamimidamido-2-({[1-(diphenylmethyl)-2-oxo-1,2-dihydropyridin-3-yl]carbonyl}amino)pentanoate]: the concentration for half-maximal inhibition (IC50) is < 50 nM.

For the compound `N=C(N)NCCC[C@H](NC(=O)c1cccn(C(c2ccccc2)c2ccccc2)c1=O)C(N)=O` [Compound 81, N-[(1S)-4-carbamimidamido-1-carbamoylbutyl]-1-(diphenylmethyl)-2-oxo-1,2-dihydropyridine-3-carboxamide-TFA], the half-maximal inhibitory concentration (IC50) fell in the range of 500 to 20000 nM.

Consider `CCOC(=O)N=C(NCCC[C@H](NC(=O)c1cccn(C(c2ccccc2)c2ccccc2)c1=O)C(=O)O)NC(C)C` [Compound 82, (2S)-2-({[1-(diphenylmethyl)-2-oxo-1,2-dihydropyridin-3-yl]carbonyl}amino)-5-{[{(ethoxycarbonyl)amino}(isopropylamino)methylene]amino}pentanoic acid], for which the half-maximal inhibitory concentration (IC50) lay within 50 to 500 nM.

For `CCOC(=O)N=C(N)NCCC[C@H](NC(=O)c1cccn(C(c2ccccc2)c2ccccc2)c1=O)C(=O)O` [Compound 83, (2S)-2-({[1-(diphenylmethyl)-2-oxo-1,2-dihydropyridin-3-yl]carbonyl}amino)-5-[(ethoxycarbonyl)carbamimidamido]pentanoic acid], the IC50 lay within 500 to 20000 nM.
